# Laboratory results from paper PMC10294756 (Journal of Enzyme Inhibition and Medicinal Chemistry, 2023).
# Like-named read-outs stand apart in the source and are kept apart here.
# Assays:
# HepG2 = assay: MTT assay, HepG2 cells; assay type: cell-based, human; conditions: for IC50: read-out: IC50 HepG2
# HuH7 = assay: MTT assay, HuH7 cells; assay type: cell-based, human; conditions: read-out: IC50 HuH7
# SMMC-7721 = assay: MTT assay, SMMC-7721 cells; assay type: cell-based, human; conditions: read-out: IC50 SMMC-7721
# LO2 = assay: MTT assay, normal hepatocyte LO2; assay type: cell-based, human
# [1] = tested on: HCC cell lines (HepG2, HuH7, and SMMC-7721); assay: MTT assay, results stated over the three HCC cell lines; assay type: cell-based; conditions: Homo sapiens, 48 h, read-out: IC50 against HCC cells (span over cell lines)
# [2] = Homo sapiens, L02, 48 h, read-out: IC50 LO2, normal liver cell line, MTT, 48 h
# [3] = read-out: IC50 LO2, normal liver cell line, MTT, 48 h
# [4] = MTT, 48 h, mean ± SD of three experiments
Structure (SMILES),"IC50 (HepG2; Homo sapiens, HepG2, 48 h) [µM]","IC50 (HuH7; Homo sapiens, Huh-7, 48 h) [µM]","IC50 (SMMC-7721; Homo sapiens, SMMC-7721, 48 h) [µM]",IC50 (LO2; [2]) [µM],IC50 [1] [µM],IC50 (LO2; [3]) [µM],"effect on the inhibition of HepG2 cell proliferation by TMHA37 (HepG2; 20 μM CDIM8, 5 μM TMHA37, 48 h, MTT)",IC50 (HepG2; [4]) [µM],IC50 (HuH7; [4]) [µM],IC50 (SMMC-7721; [4]) [µM]
"COc1ccc(F)c(/C=N/NC(=O)c2ccc(Nc3cc(C)nc4c(O)cccc34)cc2)c1 [7K, (E)-N'-(2-fluoro-5-methoxybenzylidene)-4-((8-hydroxy-2-methylquinolin-4-yl)amino)benzohydrazide]",20.1 ± 1.18,34.6 ± 2.97,28.2 ± 2.06,–,–,–,–,–,–,–
"Cc1cc(Nc2ccc(C(=O)N/N=C/c3ccc(Br)c(F)c3)cc2)c2cccc(O)c2n1 [7M, (E)-N'-(4-bromo-3-fluorobenzylidene)-4-((8-hydroxy-2-methylquinolin-4-yl)amino)benzohydrazide]",15.8 ± 3.68,23.8 ± 1.82,18.2 ± 1.94,> 90,15.8 to 27.6,–,–,–,–,–
"Cc1cc(Nc2ccc(C(=O)N/N=C/c3cc(C(F)(F)F)ccc3F)cc2)c2cccc(O)c2n1 [7P, (E)-N'-(2-fluoro-5-(trifluoromethyl)benzylidene)-4-((8-hydroxy-2-methylquinolin-4-yl)amino)benzohydrazide]",7.78 ± 1.33,19.3 ± 1.49,8.82 ± 0.41,18 ± 1.55,7.78 to 19.3,–,–,–,–,–
"Cc1cc(Nc2ccc(C(=O)N/N=C/c3csc4ccccc34)cc2)c2cccc(O)c2n1 [7V, (E)-N'-(benzo[b]thiophen-3-ylmethylene)-4-((8-hydroxy-2-methylquinolin-4-yl)amino)benzohydrazide]",13.7 ± 2.85,20.4 ± 2.75,21.7 ± 1.96,3.06 ± 0.11,–,–,–,–,–,–
"CSc1ccc(/C=N/NC(=O)c2ccc(Nc3cc(C)nc4c(O)cccc34)cc2)cc1 [7E, (E)-4-((8-hydroxy-2-methylquinolin-4-yl)amino)-N'-(4-(methylthio)benzylidene)benzohydrazide]",17.7 ± 0.3,25.6 ± 1.81,22.94 ± 0.03,> 90,–,–,–,–,–,–
"Cc1cc(Nc2ccc(C(=O)N/N=C/c3ccc4ccccc4c3)cc2)c2cccc(O)c2n1 [7S, (E)-4-((8-hydroxy-2-methylquinolin-4-yl)amino)-N'-(naphthalen-2-ylmethylene)benzohydrazide]",15.6 ± 1.65,16.2 ± 0.66,22.3 ± 0.98,> 60,15 to 23.9,66.3 ± 8.68,–,–,–,–
"COc1ccc(/C=N/NC(=O)c2ccc(Nc3cc(C)nc4c(O)cccc34)cc2)c2ccccc12 [7T, (E)-4-((8-hydroxy-2-methylquinolin-4-yl)amino)-N'-((4-methoxynaphthalen-1-yl)methylene)benzohydrazide]",15 ± 4.75,20.9 ± 2.46,23.9 ± 2.16,> 60,15 to 23.9,60.7 ± 0.98,–,–,–,–
"CC1=C(O)C(=O)C=C2C1=CC=C1[C@@]2(C)CC[C@@]2(C)[C@@H]3C[C@](C)(C(=O)O)CC[C@]3(C)CC[C@]12C [Celastrol, reference compound]",18.6 ± 1.01,34.9 ± 2.21,16 ± 3.28,–,–,–,–,–,–,–
"Oc1ccc(C(c2c[nH]c3ccccc23)c2c[nH]c3ccccc23)cc1 [CDIM8, reference compound]",–,–,–,–,–,–,significantly reversed the inhibitory effect of TMHA37 on HepG2 cell proliferation,–,–,–
"Cc1cc(Nc2ccc(C(=O)N/N=C/c3ccc(F)c(Br)c3)cc2)c2cccc(O)c2n1 [7N, (E)-N'-(3-bromo-4-fluorobenzylidene)-4-((8-hydroxy-2-methylquinolin-4-yl)amino)benzohydrazide]",27.6 ± 0.81,15.4 ± 2.09,21.1 ± 1.01,> 90,15.8 to 27.6,–,–,–,–,–
"Cc1cc(Nc2ccc(C(=O)N/N=C/c3ccc(F)c(C(F)(F)F)c3)cc2)c2cccc(O)c2n1 [7Q, (E)-N'-(4-fluoro-3-(trifluoromethyl)benzylidene)-4-((8-hydroxy-2-methylquinolin-4-yl)amino)benzohydrazide]",12.7 ± 1.61,29.2 ± 3.24,21.6 ± 1.13,4.82 ± 0.67,–,–,–,–,–,–
"Cc1cc(Nc2ccc(C(=O)N/N=C/c3cccc(Br)n3)cc2)c2cccc(O)c2n1 [7R, (E)-N'-((6-bromopyridin-2-yl)methylene)-4-((8-hydroxy-2-methylquinolin-4-yl)amino)benzohydrazide]",30 ± 0.92,32.2 ± 4.3,45.8 ± 0.64,–,30 to 45.8,–,–,–,–,–
"C#Cc1ccc(/C=N/NC(=O)c2ccc(Nc3cc(C)nc4c(O)cccc34)cc2)cc1 [7I, (E)-N'-(4-ethynylbenzylidene)-4-((8-hydroxy-2-methylquinolin-4-yl)amino)benzohydrazide]",28.3 ± 1.17,12.8 ± 0.36,33.9 ± 3.58,–,–,–,–,–,–,–
"Cc1cc(Nc2ccc(C(=O)N/N=C/c3ccc(F)cc3Br)cc2)c2cccc(O)c2n1 [7O, (E)-N'-(2-bromo-4-fluorobenzylidene)-4-((8-hydroxy-2-methylquinolin-4-yl)amino)benzohydrazide]",15.7 ± 1.31,13.7 ± 0.61,16.9 ± 1.97,69.2 ± 4.58,–,–,–,–,–,–
"N.N.[Cl][Pt][Cl] [CDDP, Cisplatinum, reference compound]",–,–,–,–,–,4.23 ± 0.52,–,2.21 ± 0.35,3.69 ± 0.55,1.58 ± 0.08
"Cc1cc(Nc2ccc(C(=O)N/N=C/c3cccc(F)c3F)cc2)c2cccc(O)c2n1 [7L, (E)-N'-(2,3-difluorobenzylidene)-4-((8-hydroxy-2-methylquinolin-4-yl)amino)benzohydrazide]",21 ± 1.51,15.9 ± 2.8,25.4 ± 1.63,25 ± 3.16,–,–,–,–,–,–
"COc1cc(/C=N/NC(=O)c2ccc(Nc3cc(C)nc4c(O)cccc34)cc2)cc(OC)c1 [7J, (E)-N’-(3,5-dimethoxybenzylidene)-4-((8-hydroxy-2-methylquinolin-4-yl)amino)benzohydrazide]",27.5 ± 2.12,26 ± 0.54,37.2 ± 2.23,–,–,–,–,–,–,–
"Cc1cc(Nc2ccc(C(=O)N/N=C/c3cc4ccccc4nc3Cl)cc2)c2cccc(O)c2n1 [7U, (E)-N'-((2-chloroquinolin-3-yl)methylene)-4-((8-hydroxy-2-methylquinolin-4-yl)amino)benzohydrazide]",17.6 ± 1.09,30.9 ± 3.39,19.9 ± 0.94,18 ± 1.29,–,–,–,–,–,–
"Cc1cc(Nc2ccc(C(=O)N/N=C/c3ccccc3Cl)cc2)c2cccc(O)c2n1 [7F, (E)-N'-(2-chlorobenzylidene)-4-((8-hydroxy-2-methylquinolin-4-yl)amino)benzohydrazide]",13.6 ± 2.14,22.3 ± 1.88,17.9 ± 1.03,15 ± 2.16,–,–,–,–,–,–
"Cc1cc(Nc2ccc(C(=O)N/N=C/c3ccsc3)cc2)c2cccc(O)c2n1 [7A, (E)-4-((8-hydroxy-2-methylquinolin-4-yl)amino)-N'-(thiophen-3-ylmethylene)benzohydrazide]",30.8 ± 2.52,31.7 ± 3.6,52.8 ± 1.56,–,30.8 to 52.8,–,–,–,–,–
"Cc1cc(Nc2ccc(C(=O)N/N=C/c3ccc(C(F)(F)F)cc3)cc2)c2cccc(O)c2n1 [7H, (E)-4-((8-hydroxy-2-methylquinolin-4-yl)amino)-N'-(4-(trifluoromethyl)benzylidene)benzohydrazide]",18.1 ± 0.98,23.3 ± 0.33,27.68 ± 0.25,> 90,–,–,–,–,–,–
"Cc1cc(Nc2ccc(C(=O)N/N=C/c3cccc(C(F)(F)F)c3)cc2)c2cccc(O)c2n1 [7G, (E)-4-((8-hydroxy-2-methylquinolin-4-yl)amino)-N'-(3-(trifluoromethyl)benzylidene)benzohydrazide]",15.5 ± 1.45,6.88 ± 2.04,20.6 ± 2.56,19.9 ± 2.01,–,–,–,–,–,–
